According to the NIST ThermoML archive (doi:10.1021/je0602465):
Several values for one entry are separate records, joined by “and”; a condition that tells them apart may be missing. Equal entries are not always repeated. Numbers after ± are expanded uncertainties.

Settings: Liquid; for vapor or sublimation pressure: low residence time flow method
[1] = Low residence time flow calorimetry

## OCCCCCCO [1,6-hexanediol]
523.2 K
  vapor or sublimation pressure: 93.33 ± 10 kPa
552.8 K
  vapor or sublimation pressure: 199.3 ± 22 kPa
597.1 K
  vapor or sublimation pressure: 500.6 ± 54 kPa
637.1 K
  vapor or sublimation pressure: 1001 ± 110 kPa
685.1 K
  vapor or sublimation pressure: 2007 ± 220 kPa
717.6 K
  vapor or sublimation pressure: 3024 ± 320 kPa
740 K
  vapor or sublimation pressure: 4012 ± 430 kPa
740.4 K
  vapor or sublimation pressure: 4054 ± 440 kPa
[1]
  Critical pressure: 4080 ± 470 kPa
Low residence time flow method
  Critical temperature: 740.8 ± 10 K

## Oc1ccccc1O [1,2-benzenediol]
511.3 K
  vapor or sublimation pressure: 81.47 ± 3.3 kPa
535.7 K
  vapor or sublimation pressure: 147 ± 5.9 kPa
547 K
  vapor or sublimation pressure: 187.4 ± 7.6 kPa
577.6 K
  vapor or sublimation pressure: 349.1 ± 14 kPa
595.6 K
  vapor or sublimation pressure: 487.9 ± 20 kPa
597.3 K
  vapor or sublimation pressure: 499.4 ± 20 kPa
621.8 K
  vapor or sublimation pressure: 742.9 ± 30 kPa
640.1 K
  vapor or sublimation pressure: 988.9 ± 40 kPa
640.9 K
  vapor or sublimation pressure: 992.8 ± 40 kPa
692.7 K
  vapor or sublimation pressure: 1996 ± 80 kPa and 1995 ± 80 kPa
711.5 K
  vapor or sublimation pressure: 2496 ± 100 kPa
727.5 K
  vapor or sublimation pressure: 2993 ± 120 kPa
727.9 K
  vapor or sublimation pressure: 2997 ± 120 kPa
753.5 K
  vapor or sublimation pressure: 4007 ± 160 kPa
754.8 K
  vapor or sublimation pressure: 3993 ± 160 kPa

## Oc1cccc(O)c1 [1,3-benzenediol]
546.7 K
  vapor or sublimation pressure: 84.54 ± 3.4 kPa
582.6 K
  vapor or sublimation pressure: 192.6 ± 7.8 kPa
631.7 K
  vapor or sublimation pressure: 494.8 ± 20 kPa
675.9 K
  vapor or sublimation pressure: 994.4 ± 40 kPa
728.6 K
  vapor or sublimation pressure: 1994 ± 80 kPa
790.6 K
  vapor or sublimation pressure: 3994 ± 160 kPa
813.7 K
  vapor or sublimation pressure: 4999 ± 200 kPa
831.3 K
  vapor or sublimation pressure: 5995 ± 240 kPa
[1]
  Critical pressure: 6240 ± 620 kPa
Low residence time flow method
  Critical temperature: 836 ± 10 K

## C1CNCCN1 [piperazine]
445.2 K
  vapor or sublimation pressure: 189.5 ± 20 kPa
471.6 K
  vapor or sublimation pressure: 343.6 ± 37 kPa
488.9 K
  vapor or sublimation pressure: 492.3 ± 53 kPa
528.1 K
  vapor or sublimation pressure: 992.6 ± 110 kPa
573.6 K
  vapor or sublimation pressure: 1994 ± 220 kPa
629.7 K
  vapor or sublimation pressure: 3997 ± 430 kPa
649.3 K
  vapor or sublimation pressure: 4994 ± 540 kPa
653.7 K
  vapor or sublimation pressure: 5243 ± 560 kPa
655 K
  vapor or sublimation pressure: 5348 ± 580 kPa
[1]
  Critical pressure: 5420 ± 320 kPa
  Critical temperature: 656.3 ± 4 K
